Values quoted from earlier work, collected in patent publication US12611419B2, “Liposomal composition for use in a method of treating Parkinson's disease” (INNOMEDICA HOLDING AG, priority 2017, dated 2026).

Experiments:
[1] = tested on: rodent model of Parkinson's disease; conditions: in vivo
[2] = tested on: B4galnt1 transgenic mice; conditions: mice deficient in GM1 family gangliosides
[3] = tested on: spinal cord injuries; conditions: patients
[4] = tested on: PD patients

Row | Compound | Parkinson's symptoms [1] | pathological CNS manifestations [2] | outcome in spinal cord injuries [3] | safety, open pilot study ([4]; 10 PD patients, 1000 mg i.v. then 200 mg/day subcutaneous, 18 weeks) | anti-GM1 antibody titres, open pilot study ([4]; 10 PD patients, 18 weeks) | PET (11)C-methylphenidate binding ([4]; GM1-treated groups, baseline, week 24, 1-2 years later) | safety of long-term administration ([4]; delayed start study) | UPDRS motor scores, early-start group ([4]; delayed start study, week 24) | UPDRS motor scores, five-year open extension ([4]; end of 5 years of GM1 use, off period) | UPDRS motor scores vs placebo ([4]; randomized placebo-controlled study, 45 individuals, 16 weeks) | adverse events at the injection site ([4]; subcutaneous administration)
1 | CCCCCCCCCCCCC/C=C/C(O)C(COC1OC(CO)C(OC2OC(CO)C(OC3OC(CO)C(O)C(OC4OC(CO)C(O)C(O)C4O)C3NC(C)=O)C(OC3(C(=O)O)CC(O)C(NC(C)=O)C(C(O)C(O)CO)O3)C2O)C(O)C1O)NC(=O)C(Cl)Cl (centres unmarked) [LIGA20] | reduce Parkinson's symptoms | – | – | – | – | – | – | – | – | – | –
2 | monosialotetrahexosylganglioside [GM1] | – | ameliorated these pathological CNS manifestations | positive outcomes in patients | safe and well tolerated | none of the patients developed elevated anti-GM1 antibody titres | significant slowing of binding loss in several striatal regions | safe and well tolerated | significant improvement in UPDRS motor scores | lower UPDRS motor scores | significant differences between groups | pain, irritation of the skin site and severe haematoma at the injection site occur
